pIC50: −log10 of the molar value. Where “and” joins values, the source holds several entries; their conditions need not be identical. Equal entries are not always repeated.
Tested on: 233499-124-R-J3-PDC complex spheroid growth
Assay: Anticancer human tumor 233499-124-R-J3-PDC patient-derived colon adenocarcinoma cell line growth inhibition [AhR]
Settings: for viability, T/C: stronger effect = lower value
Outline: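 Complex tumor spheroids co-cultured with HUVEC and human MSC stroma; AhR antagonists tested in combination with standard-of-care and investigational agents. Top concentration at or near clinical Cmax (else 10 microM), half-log dilutions; growth expressed as percent test/control.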

[1] = curve of first compound, second compound 0.1 µM
[2] = curve of first compound, second compound 0.316 µM
[3] = curve of first compound, second compound 1 µM
[4] = curve of first compound, second compound 3.16 µM
[5] = curve of first compound, second compound 10 µM
[6] = second compound 0.1 µM, first compound 0.0316 µM
[7] = second compound 0.1 µM, first compound 0.1 µM
[8] = second compound 0.1 µM, first compound 0.316 µM
[9] = second compound 0.1 µM, first compound 1 µM
[10] = second compound 0.1 µM, first compound 3.16 µM
[11] = second compound 0.1 µM, first compound 10 µM
[12] = second compound 0.316 µM, first compound 0.0316 µM
[13] = second compound 0.316 µM, first compound 0.1 µM
[14] = second compound 0.316 µM, first compound 0.316 µM
[15] = second compound 0.316 µM, first compound 1 µM
[16] = second compound 0.316 µM, first compound 3.16 µM
[17] = second compound 0.316 µM, first compound 10 µM
[18] = second compound 1 µM, first compound 0.0316 µM
[19] = second compound 1 µM, first compound 0.1 µM
[20] = second compound 1 µM, first compound 0.316 µM
[21] = second compound 1 µM, first compound 1 µM
[22] = second compound 1 µM, first compound 3.16 µM
[23] = second compound 1 µM, first compound 10 µM
[24] = second compound 3.16 µM, first compound 0.0316 µM
[25] = second compound 3.16 µM, first compound 0.1 µM
[26] = second compound 3.16 µM, first compound 0.316 µM
[27] = second compound 3.16 µM, first compound 1 µM
[28] = second compound 3.16 µM, first compound 3.16 µM
[29] = second compound 3.16 µM, first compound 10 µM
[30] = second compound 10 µM, first compound 0.0316 µM
[31] = second compound 10 µM, first compound 0.1 µM
[32] = second compound 10 µM, first compound 0.316 µM
[33] = second compound 10 µM, first compound 1 µM
[34] = second compound 10 µM, first compound 3.16 µM
[35] = second compound 10 µM, first compound 10 µM
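Also: spheroids exposed to agents for seven days before reading.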

Question: What does the source list for `O=C(c1cc(Cc2n[nH]c(=O)c3ccccc23)ccc1F)N1CCN(C(=O)C2CC2)CC1` + Cc1ccccc1N=Nc1ccc(NC(=O)c2ccnn2C)c(C)c1?
Answer: pIC50 [1]: < 5.00; pIC50 [2]: < 5.00; pIC50 [3]: < 5.00; pIC50 [4]: < 5.00; pIC50 [5]: < 5.00; viability, T/C [6]: 106%; viability, T/C [7]: 109%; viability, T/C [8]: 89%; viability, T/C [9]: 117%; viability, T/C [10]: 114%; viability, T/C [11]: 112%; viability, T/C [12]: 106%; viability, T/C [13]: 99.9%; viability, T/C [14]: 89.6%; viability, T/C [15]: 93.5%; viability, T/C [16]: 92.7%; viability, T/C [17]: 106%; viability, T/C [18]: 99.7%; viability, T/C [19]: 106%; viability, T/C [20]: 98.1%; viability, T/C [21]: 106%; viability, T/C [22]: 110%; viability, T/C [23]: 111%; viability, T/C [24]: 100%; viability, T/C [25]: 106%; viability, T/C [26]: 92.8%; viability, T/C [27]: 100%; viability, T/C [28]: 89.3%; viability, T/C [29]: 92.8%; viability, T/C [30]: 106%; viability, T/C [31]: 107%; viability, T/C [32]: 110%; viability, T/C [33]: 111%; viability, T/C [34]: 98.9%; viability, T/C [35]: 101%

Question: How did the pIC50 [1] turn out when `CC1COCCN1c1cc(C2(S(C)(=N)=O)CC2)nc(-c2ccnc3[nH]ccc23)n1` (centres undefined) + Cc1ccccc1N=Nc1ccc(NC(=O)c2ccnn2C)c(C)c1 was run?
Answer: < 5.00

Question: What about the pIC50 [2] of the same molecule?
Answer: < 5.00

Question: What about the pIC50 [3] of the same molecule?
Answer: < 5.00

Question: What about the pIC50 [4] of the same molecule?
Answer: < 5.00

Question: What about the pIC50 [5] of the same molecule?
Answer: < 5.00

Question: And the viability, T/C [6]?
Answer: 103%

Question: And the viability, T/C [7]?
Answer: 112%

Question: And the viability, T/C [8]?
Answer: 91.2%

Question: What about the viability, T/C [9] of the same molecule?
Answer: 97.8%

Question: What about the viability, T/C [10] of the same molecule?
Answer: 88.8%

Question: And the viability, T/C [11]?
Answer: 91%

Question: And the viability, T/C [12]?
Answer: 113%

Question: What about the viability, T/C [13] of the same molecule?
Answer: 107%

Question: And the viability, T/C [14]?
Answer: 94.5%

Question: And the viability, T/C [15]?
Answer: 99.7%

Question: And the viability, T/C [16]?
Answer: 96.6%

Question: What about the viability, T/C [17] of the same molecule?
Answer: 85%

Question: What about the viability, T/C [18] of the same molecule?
Answer: 103%

Question: And the viability, T/C [19]?
Answer: 100%

Question: What about the viability, T/C [20] of the same molecule?
Answer: 104%

Question: What about the viability, T/C [21] of the same molecule?
Answer: 97.6%

Question: And the viability, T/C [22]?
Answer: 77.7%

Question: What about the viability, T/C [23] of the same molecule?
Answer: 74.2%

Question: What about the viability, T/C [24] of the same molecule?
Answer: 112%

Question: And the viability, T/C [25]?
Answer: 110%

Question: And the viability, T/C [26]?
Answer: 105%

Question: What about the viability, T/C [27] of the same molecule?
Answer: 101%

Question: What about the viability, T/C [28] of the same molecule?
Answer: 99.7%

Question: What about the viability, T/C [29] of the same molecule?
Answer: 84.1%

Question: What about the viability, T/C [30] of the same molecule?
Answer: 108%

Question: And the viability, T/C [31]?
Answer: 107%

Question: And the viability, T/C [32]?
Answer: 118%

Question: What about the viability, T/C [33] of the same molecule?
Answer: 106%

Question: What about the viability, T/C [34] of the same molecule?
Answer: 109%

Question: What about the viability, T/C [35] of the same molecule?
Answer: 77.8%

Question: Which results are given for `Nc1ncn(C2CC(O)C(CO)O2)c(=O)n1` (centres undefined)?
Answer: viability, T/C (compound 0.00316 µM): 100% and 95.5% and 94.7%; viability, T/C (compound 0.01 µM): 99.2% and 102% and 92.5%; viability, T/C (compound 0.0316 µM): 89.7% and 85.1% and 97%; viability, T/C (compound 0.1 µM): 94.7% and 85.4% and 97.1%; viability, T/C (compound 0.316 µM): 92.5% and 90.6% and 99.1%; viability, T/C (compound 1 µM): 86.9% and 92.4% and 92.5%; pIC50 (curve of compound): < 6.00

Question: Which results are given for `CC1COCCN1c1cc(C2(S(C)(=N)=O)CC2)nc(-c2ccnc3[nH]ccc23)n1` (centres undefined)?
Answer: viability, T/C (compound 0.0316 µM): 103% and 90.3% and 112%; viability, T/C (compound 0.1 µM): 108% and 97% and 92.9%; viability, T/C (compound 0.316 µM): 92.2% and 95% and 95.2%; viability, T/C (compound 1 µM): 105% and 97.5% and 94.2%; viability, T/C (compound 3.16 µM): 89.7% and 90.8% and 96.2%; viability, T/C (compound 10 µM): 91.8% and 83.7% and 83.1%; pIC50 (curve of compound): < 5.00

Reference: PubChem BioAssay AID1918993 (Molecular Pharmacology Branch, DTP, NCI, 2023)
